In US20060025394A1, “Estradiol-related compounds and methods of use as anti-tumor agents” (priority 2003, published 2006):
Entries after “also recorded” stand apart in the source; their conditions may differ.

Assays:
DU-145 = assay: Cytotoxicity testing (Example 7), MTS, DU-145; type: cell-based; settings: Table 3; five days, 1 mM of each compound, defined media, MTS
Procedure: (§1) Cytotoxicity Studies were done in DU-145 and MCF-7 Cells. […] We set out to test the efficacy of these compounds based on known affinities for ER-α previously reported. Cells were treated for five days with 1 mM of each compound in a defined media. Cell number was estimated by the MTS method. Similar studies were carried out in the MCF-7 cell line known to express both ER-α and -β, and display proliferative properties in the presence of classic estrogens.

LNCaP = assay: MTS cell viability assay in LNCaP; type: cell-based
Procedure: (§2) DU145, LNCaP, PC3, and MCF-7 cells were obtained from the American Type Culture Collection (Manassas, Va.). DU145, PC3, and MCF-7 cells were maintained in Dulbecco's modified Eagle's medium/F-12 supplemented with 5% heat inactivated Fetal Calf Serum and Penicillin/Streptomycin (Invitrogen Life Technologies, Carlsbad, Calif.). LNCaP cells were maintained in RPMI 1640 medium supplemented in the same fashion. Cells were cultured in 75 cm^2 flasks (Falcon, BD Biosciences, Bedford, Mass.) at 37° C. and 5% CO2. […]
(§3) Cell viability assays were carried out with five logs of concentration between 0.1 nM and […] for APVE2, including controls in three prostate cancer cell lines (DU145, LNCaP, and PC3, and in a breast cancer cell line (MCF-7). Upon completing five days of treatment, the medium in each well was exchanged for 400 μL of an MTS solution (3-(4,5-dimethylthiazol-2-yl)-5-(3-carboxymethoxyphenyl)-2-(4-sulfophenyl)-2H-tetrazolium, inner salt; O'Toole SA, 2003, Cancer Detect Prev., 2003;27(1):47-54) spiked into media as per the manufacture's instructions (Promega, Madison, Wis.) and incubated for 2 hours at 37° C. before reading the absorbance on the μQuant UV/VIS plate reader, in conjunction with KCjunior Software (Bio-Tek Instruments, Winooski, Vt.) set at 490 nm. […] EC50 values were calculated with GraphPad Prism software (GraphPad Software Inc., San Diego, Calif.).

NCR nude mice = settings: 5 to 40 mg/kg/day bolus IM injection, 40-day period
Procedure: Doses included 5 to 40 mg/kg/day bolus IM injection. Toxicity effects were gauged based on changes in animal weight and gross analysis of specific organs including liver, lung, prostate, brain, spleen, heart, and kidney, collected, and fixed in paraffin sections.

MCF-7 [1] = assay: MTS cell viability assay in MCF-7; type: cell-based; settings: MCF-7, data not shown
Procedure: as §2, §3

DU145 cells [2] = assay: Annexin-V-FITC/PI apoptosis assay; type: cell-based; settings: 16 nM, 4th and 5th days
Procedure: Apoptosis was assessed with the annexin-V-FITC apoptosis detection kit (Oncogene Research Products, Boston, Mass.) as per the manufacturer's instructions with E2 and camptothecin (Calbiochem, San Diego, Calif.) as negative and positive controls respectively. Briefly, cells were lifted at the appropriate time points as described above and pelleted. Cells were then resuspended in ice cold binding buffer, and doubly stained with Annexin-V-fluorescein isothiocyanate and propidium iodide (PI) and analyzed within two hours on the FACScan™ flow cytometer (Becton Dickinson) and the Cell Cycle Multi-Cycle system (Phoenix Flow System).

ER-α = target: T1, ER-α (Homo sapiens, UniProt P03372); assay: Estrogen receptor relative binding affinity assay, fluorescence polarization, ER-α
T1 construct: purchased Pan Vera, Madison, Wis
T1 sequence (P03372 1-595): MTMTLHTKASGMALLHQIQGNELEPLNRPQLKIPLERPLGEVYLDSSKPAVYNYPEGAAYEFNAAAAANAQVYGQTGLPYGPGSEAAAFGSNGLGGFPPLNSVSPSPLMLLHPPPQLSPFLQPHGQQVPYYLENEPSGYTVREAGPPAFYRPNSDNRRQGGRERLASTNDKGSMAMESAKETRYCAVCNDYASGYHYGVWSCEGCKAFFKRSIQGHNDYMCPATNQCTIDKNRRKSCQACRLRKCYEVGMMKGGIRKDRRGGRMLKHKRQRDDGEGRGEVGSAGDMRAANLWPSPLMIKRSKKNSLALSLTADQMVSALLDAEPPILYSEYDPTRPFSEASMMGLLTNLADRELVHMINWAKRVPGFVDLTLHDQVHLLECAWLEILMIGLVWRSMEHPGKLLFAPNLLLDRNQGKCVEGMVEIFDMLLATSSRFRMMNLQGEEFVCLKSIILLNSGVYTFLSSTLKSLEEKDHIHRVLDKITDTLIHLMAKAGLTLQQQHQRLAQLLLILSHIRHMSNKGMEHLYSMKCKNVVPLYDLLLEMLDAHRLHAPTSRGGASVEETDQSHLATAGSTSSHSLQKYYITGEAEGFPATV
Procedure: All assays were carried out as per the manufacture's instructions with the following modifications.

PC3 = assay: MTS cell viability assay in PC3; type: cell-based
Procedure: DU145, LNCaP, PC3, and MCF-7 cells were obtained from the American Type Culture Collection (Manassas, Va.). DU145, PC3, and MCF-7 cells were maintained in Dulbecco's modified Eagle's medium/F-12 supplemented with 5% heat inactivated Fetal Calf Serum and Penicillin/Streptomycin (Invitrogen Life Technologies, Carlsbad, Calif.). LNCaP cells were maintained in RPMI 1640 medium supplemented in the same fashion. Cells were cultured in 75 cm^2 flasks (Falcon, BD Biosciences, Bedford, Mass.) at 37° C. and 5% CO2. For the MTS assay (Example 3), five thousand cells were plated in each well of a 24 well plate (Falcon), were allowed to attach for a 48-hour period in the media described, and changed to a defined medium, (DMEM/F-12 or RPMI1640) supplemented with insulin (BD Biosciences). A 1000× solution of the compound of interest solubilized in DMSO (Sigma, Saint Louis, Mo.) was diluted in the defined media just prior to starting each experiment, and media was refreshed every 48 to 72 hours throughout the experiments.
as §3, with “nm. All experiments were carried out in quadruplicate, control wells were treated with the carrier DMSO. E2, which is estradiol-17β (Steraloids®, Newport, R.I.) and resveratrol (Sigma) were used as controls.” for “nm.”

DU145 cells [3] = assay: ER competition study, MTS assay with E2 as the competitor; settings: DU145, co- or 1 hour pre-treatment with 1 μM E2
MCF-7 [4] = assay: Cytotoxicity testing (Example 7), MTS, MCF-7; type: cell-based; settings: Table 3, five days, 1 mM of each compound, defined media
Procedure: as §1

C[C@]12CC[C@@H]3c4ccc(O)cc4CC[C@H]3[C@@H]1CC[C@@]2(O)/C=C\c1ccc(N)cc1 [APVE2, 17α-20Z-21-[(4-amino)phenyl]-19-norpregna-1,3,5(10),20-tetraene-3,17β-diol]
DU145 % Cell# (DU-145): 10%
decrease in cell number (LNCaP; 5 days of treatment at 1 μM): 69±2.3%
EC50 (LNCaP; Homo sapiens, 120 h, five day treatment, read-out: EC50 (cell death, MTS)): 1.4 nM
general toxicity (animal weight, gross analysis of organs) (NCR nude mice): No apparent detrimental effects
cell death (MCF-7 [1]): did induce cell death
proliferation / growth response (MCF-7 [1]): no growth response; also recorded: did not cause an increase in proliferation
cells staining heavily with both dyes (late stage apoptosis) (DU145 cells [2]): approximately 76%
EC50 (ER-α; fluorescence polarization, 25° C., 2 hours): 365 nM
ER-α % RBA (ER-α; ratio of EC50 values as compared to E2): 0.87%
EC50 (PC3; Homo sapiens, PC-3, 120 h, PC3, five day treatment, read-out: EC50 (cell death, MTS)): 2.7 nM
increase in cell proliferation over non-treated controls (PC3; PC3, 1 nM): 20%
decrease in cell number (PC3; PC3, 5 days of treatment at 1 μM): 81±0.8%
reversal of cytotoxicity of 16 nM APVE2 by E2 (DU145 cells [3]): not effected; also recorded: not reversed
MCF-7 % Cell# (MCF-7 [4]): 25%
